Reference: patent US11384071B2, “Inhibitors of mechanotransduction to treat pain and modulate touch perception” (Max-Delbrück-Centrum für Molekulare Medizin in der …, priority 2016, dated 2022)

System: mice with chronic constriction injury
Assay: Chronic constriction injury (CCI) model, paw withdrawal thresholds to von Frey filaments
Format: in vivo, mouse
Conditions: CCI, systemic treatment
From the text: In deeply anaesthetized mice using isoflurane delivered in 100% 02 (Univentor 410 Anaesthesia unit; Univentor, Malta), four loose silk (5/0; Catgut GmbH Markneukirchen) ligatures were placed around the sciatic nerve at the level of the right mid-thigh as described previously (Wetzel et al., 2007).
Mice were allowed to habituate to the testing apparatus (acrylic chambers 10×10 cm in size, suspended above a wired mesh grid) one hour prior to behavioral testing. Only once the subject was at rest and not moving, calibrated von-Frey hair monofilaments (Aesthesio® set of 20 monofilaments, Ugo Basil) were applied to the plantar surface of the hind paw in order to deliver target forces from 0.008 grams to 4 grams increasing in an approximately logarithmic scale. A single stimulus indicated by a slight bending of the filament lasted for two seconds unless the mouse withdrew its paw. In order to measure mechanosensitivity the up-and-down method described by Chaplan^13 was adapted as follows: Testing began with a filament delivering a target force of 0.4 g, but filaments were applied three times. A positive response was noted if the subject withdrew the paw to all three filament applications, so that the successively smaller filament was presented next. […] Paw withdrawal thresholds were calculated as median of 23 to 30 determined turning points of the particular force stimuli applied to the subject.
Drug injections of OB-1 or DMSO alone were dissolved in Ringer's solution (in mM: 135 NaCl, 5 KCl, 5 HEPES, 1.8 CaCl2), 1 MgCl2) to make the OB-1 and vehicle solution. Injections were made 3 hours prior to behavioral testing, approximately 20 μl solution, 250 pmol per paw, was injected into the palm with a Hamilton syringe, gauge 33. During the injection procedure, the mouse was anaesthetized with isoflurane (1.5 to 2.5% in 02). The injection procedure lasted around 3 minutes after which the mouse was moved to the home cage for recovery before behavioral testing.
We next interrogated whether local application of OB-1 can ameliorate tactile-evoked pain behavior in neuropathic models. […] We decided to test this idea more directly by testing the effects of local OB-1 on the mechanical sensitivity of Stoml3^−/− mice with CCI. […] Off-target effects are an issue for any biologically active small molecule. We therefore tested the effects of 20 μM OB-1 in a commercially available in vitro pharmacology panel (www.cerep.fr) consisting of 79 receptors and ion channels.

SMILES: NCC1(CC(=O)O)CCCCC1 [gabapentin, reference compound]
- tactile allodynia: reversal of tactile allodynia
